The text below walks through data of ChEMBL document CHEMBL1134339, “New 1-aryl-3-(4-arylpiperazin-1-yl)propane derivatives, with dual action at 5-HT1A serotonin receptors and serotonin transporter, as a new class of antidepressants” (J Med Chem, 2001).

For assay [1], the system named is Rattus norvegicus. In words: Effect on helpless behavior in rats and the number of escape failures was determined in shuttle-box session-2 (SB-2) at 30 mg/kg dose. It counts as functional.
Assay [2] relates to Rattus norvegicus. Nature of the assay: Effect on helpless behavior in rats and the number of escape failures was determined in shuttle-box session-1 (SB-1) at 30 mg/kg dose. In kind it is functional.
The test system of assay [3] is Rattus norvegicus. In words: Effect on helpless behavior in rats and the number of escape failures was determined in shuttle-box session-3 (SB-3) at 30 mg/kg dose. In kind it is functional.
Assay [4] relates to Mus musculus. In words: Effect on immobility time in the forced swimming test (FST) in mice at mg/kg dose. In kind it is functional.
The subject of assay [5] is Mus musculus. Nature of the assay: Antidepressant-like activity in the forced swimming test (FST) in mice at 0.1 mg/kg dose; Antidepressant like activity. In kind it is functional.
The test system of assay [6] is Mus musculus. In words: Antidepressant-like activity in the forced swimming test (FST) in mice at 10 mg/kg dose; Antidepressant like activity. It counts as functional.
Assay [7] concerns Mus musculus. Nature of the assay: Time-dependent effect on 8-OH-DPAT-induced hypothermia (change in body temperature) after 15 min, in mice at 0.5 mg/kg dose. It counts as functional.
Assay [8] concerns Mus musculus. Nature of the assay: Time-dependent effect on 8-OH-DPAT-induced hypothermia (change in body temperature) after 30 min, in mice at 5 mg/kg dose. In kind it is functional.
The subject of assay [9] is Mus musculus. In words: Time-dependent effect on 8-OH-DPAT-induced hypothermia (change in body temperature) after 60 min, in mice at 0.5 mg/kg dose. It counts as functional.
Assay [10] relates to Mus musculus. Nature of the assay: Antidepressant-like activity in the forced swimming test (FST) in mice at 1 mg/kg dose; Antidepressant like activity. In kind it is functional.
In assay [11] the test system is Mus musculus. In words: Effect on immobility time in the forced swimming test (FST) in mice at 10 mg/kg dose. It counts as functional.
The test system of assay [12] is Mus musculus. In words: Time-dependent effect on 8-OH-DPAT-induced hypothermia (change in body temperature) after 60 min, in mice at 5 mg/kg dose. It counts as functional.
The target in assay [13] is Sodium-dependent serotonin transporter (Rattus norvegicus, UniProt P31652). Nature of the assay: Binding affinity towards Serotonin transporter from rat cortex measured using [3H]paroxetine. The settings on record: read-out: Ki.
Sequence of Sodium-dependent serotonin transporter (P31652 whole entry): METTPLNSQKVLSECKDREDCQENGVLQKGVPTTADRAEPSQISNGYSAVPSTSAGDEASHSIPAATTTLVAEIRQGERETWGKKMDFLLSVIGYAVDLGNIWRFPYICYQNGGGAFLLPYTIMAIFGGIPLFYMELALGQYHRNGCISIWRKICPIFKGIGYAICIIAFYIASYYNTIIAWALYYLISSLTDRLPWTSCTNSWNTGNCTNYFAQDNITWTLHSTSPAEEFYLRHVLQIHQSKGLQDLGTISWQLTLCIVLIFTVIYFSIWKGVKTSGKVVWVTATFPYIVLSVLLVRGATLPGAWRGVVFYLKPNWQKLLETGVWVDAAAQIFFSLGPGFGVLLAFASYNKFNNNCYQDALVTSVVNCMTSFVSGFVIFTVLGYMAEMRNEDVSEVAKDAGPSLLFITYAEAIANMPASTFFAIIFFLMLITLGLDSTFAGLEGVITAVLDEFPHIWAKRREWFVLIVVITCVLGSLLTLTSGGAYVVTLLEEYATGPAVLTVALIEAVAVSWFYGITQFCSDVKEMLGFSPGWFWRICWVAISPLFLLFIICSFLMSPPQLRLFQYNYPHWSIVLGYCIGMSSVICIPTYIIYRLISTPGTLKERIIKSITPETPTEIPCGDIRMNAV
Assay [14] concerns the target T1, 5-hydroxytryptamine receptor 1A (Rattus norvegicus, UniProt P19327).
T1 sequence (P19327 whole entry): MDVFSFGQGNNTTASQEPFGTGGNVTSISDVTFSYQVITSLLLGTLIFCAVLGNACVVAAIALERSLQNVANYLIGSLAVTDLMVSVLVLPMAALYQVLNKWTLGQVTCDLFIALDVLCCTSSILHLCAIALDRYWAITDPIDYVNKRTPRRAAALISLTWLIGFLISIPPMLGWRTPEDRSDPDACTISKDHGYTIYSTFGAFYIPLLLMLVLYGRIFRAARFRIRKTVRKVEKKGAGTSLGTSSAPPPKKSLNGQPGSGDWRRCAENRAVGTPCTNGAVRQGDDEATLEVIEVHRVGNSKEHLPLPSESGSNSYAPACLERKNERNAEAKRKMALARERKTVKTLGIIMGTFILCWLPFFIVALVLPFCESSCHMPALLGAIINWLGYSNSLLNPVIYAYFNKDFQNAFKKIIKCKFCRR
Nature of the assay: Binding affinity to 5-hydroxytryptamine 1A receptor (5-HT 1A receptor, serotonin receptor) from rat cortex using [3H]8-OH-DPAT as radioligand. The settings on record: read-out: Ki.

The subject of assay [15] is Mus musculus. Nature of the assay: Effect on immobility time in the forced swimming test (FST) in mice at 0 mg/kg dose. It counts as functional.
Assay [16] concerns Mus musculus. Nature of the assay: Effect on immobility time in the forced swimming test (FST) in mice at 0.1 mg/kg dose. In kind it is functional.
Assay [17] deals with Mus musculus. In words: Time-dependent effect on 8-OH-DPAT-induced hypothermia (change in body temperature) after 30 min, in mice at 0.5 mg/kg dose. In kind it is functional.
Assay [18] deals with Mus musculus. In words: Time-dependent effect on 8-OH-DPAT-induced hypothermia (change in body temperature) after 15 min, in mice at 5 mg/kg dose. In kind it is functional.

Take `CNCCC(Oc1ccc(C(F)(F)F)cc1)c1ccccc1` (stereo not drawn) [FLUOXETINE]: the “No. of escape failures” value is less than 4 in the assay on Rattus norvegicus [1], 13 in the assay with Rattus norvegicus [2] and less than 3.2 in the assay on Rattus norvegicus [3].

For orientation: Ki means a dissociation constant, usually derived from enzyme kinetics or from competition with a known ligand. In the case of `COc1ccccc1N1CCN(CC/C(=N\O)c2csc3ccccc23)CC1`, the Immobility time with Mus musculus [4] was 150.1 s; in the assay on Mus musculus [11], less than 102 s; in the assay with Mus musculus [15] it was 188.1 s; in the assay with Mus musculus [16], 181.1 s. Besides, the Activity was found to be 0% in the assay on Mus musculus [5], 50% in the assay with Mus musculus [6] and 22% in the assay on Mus musculus [10]. In addition, the Temperature change in the assay on Mus musculus [7] is -2.16 °C; in the assay on Mus musculus [8], -2.99 °C; with Mus musculus [9], -1.7 °C; in the assay on Mus musculus [12], -1.31 °C; in the assay with Mus musculus [17], -2.18 °C; with Mus musculus [18] it was -2.77 °C. In addition, the figures for the Ki in [13] and in assay [14] were 95 nM and 60 nM, respectively.
